According to ChEMBL document CHEMBL1142172, “Curing Mycobacterium ulcerans infection in mice with a combination of rifampin-streptomycin or rifampin-amikacin” (2007):

Legend:
[1] = test system: Mycobacterium ulcerans; assay: Antimycobacterial activity in Mycobacterium ulcerans Cu001 infected BALB/c mouse assessed as mean number of CFU per foot-pad at […], sc after 2 weeks; type: functional
[2] = test system: Mycobacterium ulcerans; assay: Antimycobacterial activity in Mycobacterium ulcerans Cu001 infected BALB/c mouse assessed as mean number of CFU per foot-pad at 10 mg/kg, sc after 2 weeks; type: functional; conditions: route subcutaneous

| SMILES | Log10 cfu [1] | Log10 cfu [2] |
| --- | --- | --- |
| NCC[C@H](O)C(=O)N[C@@H]1C[C@H](N)[C@@H](O[C@H]2O[C@H](CN)[C@@H](O)[C@H](O)[C@H]2O)[C@H](O)[C@H]1O[C@H]1O[C@H](CO)[C@@H](O)[C@H](N)[C@H]1O [AMIKACIN] | 3.92 | – |
| CO[C@H]1/C=C/O[C@@]2(C)Oc3c(C)c(O)c4c(O)c(c(/C=N/N5CCN(C)CC5)c(O)c4c3C2=O)NC(=O)/C(C)=C\C=C\[C@H](C)[C@H](O)[C@@H](C)[C@@H](O)[C@@H](C)[C@H](OC(C)=O)[C@@H]1C [RIFAMPIN] | – | 4.13 |
| CN[C@@H]1[C@H](O[C@H]2[C@H](O[C@H]3[C@H](O)[C@@H](O)[C@H](N=C(N)N)[C@@H](O)[C@@H]3N=C(N)N)O[C@@H](C)[C@]2(O)C=O)O[C@@H](CO)[C@H](O)[C@H]1O [STREPTOMYCIN] | 4.13 | – |
